One block for each compound: values may come before it.
Assays:
Toll-like receptor 5 = Toll-like receptor 5 (Homo sapiens, UniProt O60602); experiment: Antagonist activity at TLR5 (unknown origin)
Toll-like receptor 7 [1] = molecular target: T1, Toll-like receptor 7 (Homo sapiens, UniProt Q9NYK1)
T1 sequence (Q9NYK1 whole entry): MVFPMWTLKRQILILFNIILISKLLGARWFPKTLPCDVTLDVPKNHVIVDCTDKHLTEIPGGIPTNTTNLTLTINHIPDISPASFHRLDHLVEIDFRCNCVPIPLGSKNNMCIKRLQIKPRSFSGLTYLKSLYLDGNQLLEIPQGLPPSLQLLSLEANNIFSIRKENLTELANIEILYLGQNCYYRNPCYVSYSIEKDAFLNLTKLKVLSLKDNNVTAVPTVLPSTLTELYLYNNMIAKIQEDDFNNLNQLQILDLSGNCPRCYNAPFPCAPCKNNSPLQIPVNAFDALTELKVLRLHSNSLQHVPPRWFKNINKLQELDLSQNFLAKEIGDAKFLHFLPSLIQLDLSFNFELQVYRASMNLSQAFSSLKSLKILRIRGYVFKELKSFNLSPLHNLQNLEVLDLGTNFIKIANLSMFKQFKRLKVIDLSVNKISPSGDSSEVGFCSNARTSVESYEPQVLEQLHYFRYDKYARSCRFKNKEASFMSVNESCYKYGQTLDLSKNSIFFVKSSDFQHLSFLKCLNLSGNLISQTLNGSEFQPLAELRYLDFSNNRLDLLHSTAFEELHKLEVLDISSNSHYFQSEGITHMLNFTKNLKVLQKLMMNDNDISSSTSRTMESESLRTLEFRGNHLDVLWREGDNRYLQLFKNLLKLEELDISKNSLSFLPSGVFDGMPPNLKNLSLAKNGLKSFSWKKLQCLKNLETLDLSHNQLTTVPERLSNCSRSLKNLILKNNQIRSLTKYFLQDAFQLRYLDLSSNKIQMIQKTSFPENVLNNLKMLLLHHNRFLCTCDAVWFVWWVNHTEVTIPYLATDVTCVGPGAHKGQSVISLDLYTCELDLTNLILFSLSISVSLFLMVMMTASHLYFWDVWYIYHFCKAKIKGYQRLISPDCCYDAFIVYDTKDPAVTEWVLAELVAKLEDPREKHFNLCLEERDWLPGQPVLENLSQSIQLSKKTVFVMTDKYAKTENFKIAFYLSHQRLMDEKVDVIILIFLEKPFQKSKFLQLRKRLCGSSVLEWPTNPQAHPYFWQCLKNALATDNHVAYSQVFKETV
Description: (§1) Agonist activity at TLR7 (unknown origin)

[2] = Antagonist activity at TLR2/TLR4 (unknown origin); parameters: species or system Homo sapiens
Toll-like receptor 8 [3] = molecular target: T2, Toll-like receptor 8 (Homo sapiens, UniProt Q9NR97)
T2 sequence (Q9NR97 whole entry): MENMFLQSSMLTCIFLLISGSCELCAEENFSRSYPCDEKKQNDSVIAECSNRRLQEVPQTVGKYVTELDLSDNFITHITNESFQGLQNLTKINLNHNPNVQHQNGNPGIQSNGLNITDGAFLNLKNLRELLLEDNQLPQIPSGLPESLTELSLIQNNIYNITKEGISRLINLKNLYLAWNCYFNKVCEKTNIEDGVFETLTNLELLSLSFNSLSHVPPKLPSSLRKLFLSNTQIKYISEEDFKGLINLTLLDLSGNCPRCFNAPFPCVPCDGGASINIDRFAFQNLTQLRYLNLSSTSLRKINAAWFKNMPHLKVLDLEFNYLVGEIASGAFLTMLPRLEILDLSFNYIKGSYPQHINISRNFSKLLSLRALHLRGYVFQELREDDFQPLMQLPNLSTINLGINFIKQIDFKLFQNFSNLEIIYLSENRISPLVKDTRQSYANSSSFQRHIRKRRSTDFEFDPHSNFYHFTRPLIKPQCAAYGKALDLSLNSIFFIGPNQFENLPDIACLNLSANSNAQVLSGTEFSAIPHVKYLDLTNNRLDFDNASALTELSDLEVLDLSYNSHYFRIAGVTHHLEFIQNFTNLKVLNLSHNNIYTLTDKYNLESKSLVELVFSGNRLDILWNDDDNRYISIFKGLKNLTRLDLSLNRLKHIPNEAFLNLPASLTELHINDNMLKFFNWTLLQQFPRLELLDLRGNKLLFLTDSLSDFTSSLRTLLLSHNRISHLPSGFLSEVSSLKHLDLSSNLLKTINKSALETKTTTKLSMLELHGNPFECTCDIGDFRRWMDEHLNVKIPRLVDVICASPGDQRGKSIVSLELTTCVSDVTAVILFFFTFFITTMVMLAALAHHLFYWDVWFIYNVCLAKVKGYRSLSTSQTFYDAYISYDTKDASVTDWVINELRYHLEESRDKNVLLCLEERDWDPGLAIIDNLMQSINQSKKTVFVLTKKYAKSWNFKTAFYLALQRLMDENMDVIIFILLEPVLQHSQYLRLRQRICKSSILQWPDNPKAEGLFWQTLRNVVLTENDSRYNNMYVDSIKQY
Description: (§2) Agonist activity at TLR8 (unknown origin)

Toll-like receptor 4 [4] = molecular target: T3, Toll-like receptor 4 (Mus musculus, UniProt Q9QUK6); experiment: Antagonist activity at TLR4 in mouse peritoneal macrophages assessed as inhibition of NO production; assay type: cell-based, Peritoneal macrophage
T3 sequence (Q9QUK6 whole entry): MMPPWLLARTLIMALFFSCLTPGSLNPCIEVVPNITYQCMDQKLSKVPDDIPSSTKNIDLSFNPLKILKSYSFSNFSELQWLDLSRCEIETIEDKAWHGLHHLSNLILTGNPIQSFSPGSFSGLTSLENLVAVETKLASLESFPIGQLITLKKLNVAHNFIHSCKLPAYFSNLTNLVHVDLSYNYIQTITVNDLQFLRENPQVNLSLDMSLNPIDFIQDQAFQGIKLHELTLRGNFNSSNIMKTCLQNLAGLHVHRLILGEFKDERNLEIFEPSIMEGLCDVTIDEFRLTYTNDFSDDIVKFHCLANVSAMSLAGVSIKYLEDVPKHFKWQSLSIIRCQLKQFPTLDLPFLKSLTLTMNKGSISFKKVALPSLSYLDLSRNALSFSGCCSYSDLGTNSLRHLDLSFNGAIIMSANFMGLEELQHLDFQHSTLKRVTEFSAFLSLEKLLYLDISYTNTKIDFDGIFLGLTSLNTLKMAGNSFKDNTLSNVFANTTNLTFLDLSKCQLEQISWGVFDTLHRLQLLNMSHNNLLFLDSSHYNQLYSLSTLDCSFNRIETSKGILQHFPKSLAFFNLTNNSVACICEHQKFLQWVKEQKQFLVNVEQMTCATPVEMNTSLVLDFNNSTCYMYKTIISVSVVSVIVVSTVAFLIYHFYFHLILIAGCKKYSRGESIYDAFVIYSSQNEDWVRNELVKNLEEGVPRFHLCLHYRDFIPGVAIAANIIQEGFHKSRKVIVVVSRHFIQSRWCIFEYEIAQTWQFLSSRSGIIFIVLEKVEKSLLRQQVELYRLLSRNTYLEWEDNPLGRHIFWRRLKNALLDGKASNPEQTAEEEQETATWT

Toll-like receptor 4 [5] = molecular target: T3, Toll-like receptor 4; experiment: Antagonist activity at TLR4 in mouse peritoneal macrophages assessed as inhibition of TNF-alpha production; assay type: cell-based, Peritoneal macrophage
Toll-like receptor 4 [6] = molecular target: T3, Toll-like receptor 4; experiment: Antagonist activity at TLR4 in mouse peritoneal macrophages assessed as inhibition of IL-6 production; assay type: cell-based, Peritoneal macrophage
Toll-like receptor 8 [7] = molecular target: T2, Toll-like receptor 8; remark: listed apart in the source
Description: as §2

Toll-like receptor 8 [8] = molecular target: T2, Toll-like receptor 8; experiment: Binding affinity to human TLR8 expressed in HEK-Blue hTLR8 cells; assay type: cell-based
Toll-like receptor 3 = molecular target: T4, Toll-like receptor 3 (Homo sapiens, UniProt O15455); experiment: Antagonist activity at TLR3 (unknown origin)
T4 sequence (O15455 whole entry): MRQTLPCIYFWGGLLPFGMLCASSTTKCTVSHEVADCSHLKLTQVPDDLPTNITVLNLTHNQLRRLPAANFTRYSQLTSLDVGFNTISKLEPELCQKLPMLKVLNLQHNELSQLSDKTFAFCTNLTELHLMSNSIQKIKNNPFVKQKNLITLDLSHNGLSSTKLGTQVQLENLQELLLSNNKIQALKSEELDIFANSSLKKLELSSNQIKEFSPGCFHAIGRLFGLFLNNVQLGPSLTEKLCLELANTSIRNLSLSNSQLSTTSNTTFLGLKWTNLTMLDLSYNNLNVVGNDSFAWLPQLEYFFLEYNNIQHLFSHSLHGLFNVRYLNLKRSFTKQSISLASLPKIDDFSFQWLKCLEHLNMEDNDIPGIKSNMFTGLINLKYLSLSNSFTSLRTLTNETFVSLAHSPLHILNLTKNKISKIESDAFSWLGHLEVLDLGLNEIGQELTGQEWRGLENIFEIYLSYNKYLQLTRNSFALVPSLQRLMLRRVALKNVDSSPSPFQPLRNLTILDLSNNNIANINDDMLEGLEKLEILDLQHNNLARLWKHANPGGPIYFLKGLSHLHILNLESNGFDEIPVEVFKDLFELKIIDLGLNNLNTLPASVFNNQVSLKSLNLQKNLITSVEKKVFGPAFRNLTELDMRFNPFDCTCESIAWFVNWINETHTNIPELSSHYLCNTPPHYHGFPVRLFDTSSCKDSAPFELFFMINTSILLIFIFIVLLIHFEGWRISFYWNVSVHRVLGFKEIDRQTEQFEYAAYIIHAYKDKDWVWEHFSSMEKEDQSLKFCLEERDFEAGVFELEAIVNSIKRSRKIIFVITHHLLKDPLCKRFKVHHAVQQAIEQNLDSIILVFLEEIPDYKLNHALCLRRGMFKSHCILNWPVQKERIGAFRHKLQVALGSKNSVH

Toll-like receptor 1/2 [9] = molecular target: T5, Toll-like receptor 1/2 (Homo sapiens, UniProt O60603+Q15399); experiment: Antagonist activity at TLR1/TLR2 in HEK-Blue hTLR2 cells; assay type: cell-based
T5 sequence (O60603 whole entry): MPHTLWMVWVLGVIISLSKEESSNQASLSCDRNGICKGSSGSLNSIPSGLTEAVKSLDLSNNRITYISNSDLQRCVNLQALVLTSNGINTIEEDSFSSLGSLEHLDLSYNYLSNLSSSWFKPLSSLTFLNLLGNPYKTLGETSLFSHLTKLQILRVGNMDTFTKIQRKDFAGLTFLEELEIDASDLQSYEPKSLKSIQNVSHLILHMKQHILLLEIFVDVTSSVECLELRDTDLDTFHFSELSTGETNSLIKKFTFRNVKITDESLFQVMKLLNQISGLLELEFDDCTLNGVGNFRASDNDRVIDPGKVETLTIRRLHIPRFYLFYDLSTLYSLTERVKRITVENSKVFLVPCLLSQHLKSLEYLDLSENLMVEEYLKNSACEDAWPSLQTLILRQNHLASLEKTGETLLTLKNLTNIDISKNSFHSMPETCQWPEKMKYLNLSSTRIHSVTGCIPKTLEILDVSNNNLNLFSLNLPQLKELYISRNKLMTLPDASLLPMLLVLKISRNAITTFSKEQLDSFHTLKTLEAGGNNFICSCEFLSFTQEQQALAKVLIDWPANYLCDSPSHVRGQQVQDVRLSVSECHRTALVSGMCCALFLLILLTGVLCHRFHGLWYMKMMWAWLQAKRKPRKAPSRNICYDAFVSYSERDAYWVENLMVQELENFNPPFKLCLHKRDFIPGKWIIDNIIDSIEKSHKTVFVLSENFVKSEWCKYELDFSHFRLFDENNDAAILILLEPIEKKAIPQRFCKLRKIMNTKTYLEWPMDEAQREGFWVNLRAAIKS
T5 sequence (Q15399 whole entry): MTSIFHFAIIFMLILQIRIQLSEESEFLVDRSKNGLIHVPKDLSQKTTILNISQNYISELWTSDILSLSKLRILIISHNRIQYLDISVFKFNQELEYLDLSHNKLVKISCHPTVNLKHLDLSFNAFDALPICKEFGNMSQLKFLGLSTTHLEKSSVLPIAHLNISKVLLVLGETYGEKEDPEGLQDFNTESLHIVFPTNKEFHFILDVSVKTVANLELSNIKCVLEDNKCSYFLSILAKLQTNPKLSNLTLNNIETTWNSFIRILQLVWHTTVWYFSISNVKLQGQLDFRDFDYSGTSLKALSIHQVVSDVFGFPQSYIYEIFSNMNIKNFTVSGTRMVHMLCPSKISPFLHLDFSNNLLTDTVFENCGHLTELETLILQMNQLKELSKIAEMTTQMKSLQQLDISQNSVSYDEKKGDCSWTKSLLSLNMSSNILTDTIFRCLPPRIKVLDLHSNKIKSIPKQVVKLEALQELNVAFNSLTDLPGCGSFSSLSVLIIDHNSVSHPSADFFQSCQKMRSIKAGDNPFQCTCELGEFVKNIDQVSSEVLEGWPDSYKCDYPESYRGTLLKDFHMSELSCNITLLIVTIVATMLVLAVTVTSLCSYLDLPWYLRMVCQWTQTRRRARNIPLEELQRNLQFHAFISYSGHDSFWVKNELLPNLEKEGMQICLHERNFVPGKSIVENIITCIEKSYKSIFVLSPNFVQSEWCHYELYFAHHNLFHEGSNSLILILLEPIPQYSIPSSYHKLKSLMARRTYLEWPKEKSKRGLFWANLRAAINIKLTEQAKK

TLR2/TLR6 [10] = molecular target: T6, TLR2/TLR6 (Homo sapiens, UniProt O60603+Q9Y2C9); experiment: Antagonist activity at TLR2/TLR6 in human THP-1 cells; assay type: cell-based
T6 sequence (O60603 whole entry): as the sequence (O60603 whole entry) above
T6 sequence (Q9Y2C9 whole entry): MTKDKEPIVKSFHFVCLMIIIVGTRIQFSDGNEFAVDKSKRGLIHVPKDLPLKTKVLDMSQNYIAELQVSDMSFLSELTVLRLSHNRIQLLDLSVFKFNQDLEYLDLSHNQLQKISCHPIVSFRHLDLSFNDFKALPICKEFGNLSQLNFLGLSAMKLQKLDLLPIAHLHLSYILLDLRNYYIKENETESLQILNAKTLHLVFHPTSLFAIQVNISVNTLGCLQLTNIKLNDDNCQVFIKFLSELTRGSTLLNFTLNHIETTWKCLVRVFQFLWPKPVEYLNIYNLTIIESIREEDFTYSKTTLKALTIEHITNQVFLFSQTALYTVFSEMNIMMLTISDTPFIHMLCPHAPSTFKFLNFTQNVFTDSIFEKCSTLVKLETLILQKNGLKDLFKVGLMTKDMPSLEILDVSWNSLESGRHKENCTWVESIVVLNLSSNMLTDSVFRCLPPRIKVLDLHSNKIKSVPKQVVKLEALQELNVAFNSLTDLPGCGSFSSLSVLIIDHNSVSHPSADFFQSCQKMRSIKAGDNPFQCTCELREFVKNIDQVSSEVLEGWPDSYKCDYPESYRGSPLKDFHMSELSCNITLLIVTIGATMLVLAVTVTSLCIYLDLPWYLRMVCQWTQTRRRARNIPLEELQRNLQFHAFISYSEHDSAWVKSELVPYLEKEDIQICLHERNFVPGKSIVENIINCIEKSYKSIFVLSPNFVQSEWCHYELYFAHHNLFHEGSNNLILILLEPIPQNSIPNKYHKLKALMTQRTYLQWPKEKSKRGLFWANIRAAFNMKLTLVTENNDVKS

Toll-like receptor 8 [11] = molecular target: T2, Toll-like receptor 8; experiment: Antagonist activity at human TLR8
Toll-like receptor 4 [12] = molecular target: Toll-like receptor 4 (Homo sapiens, UniProt O00206); experiment: Inhibition of TLR4 in human HEK293T cells co-expressing MD-2 receptor; assay type: cell-based
Toll-like receptor 4 (Homo sapiens, UniProt O00206), sequence (O00206 whole entry): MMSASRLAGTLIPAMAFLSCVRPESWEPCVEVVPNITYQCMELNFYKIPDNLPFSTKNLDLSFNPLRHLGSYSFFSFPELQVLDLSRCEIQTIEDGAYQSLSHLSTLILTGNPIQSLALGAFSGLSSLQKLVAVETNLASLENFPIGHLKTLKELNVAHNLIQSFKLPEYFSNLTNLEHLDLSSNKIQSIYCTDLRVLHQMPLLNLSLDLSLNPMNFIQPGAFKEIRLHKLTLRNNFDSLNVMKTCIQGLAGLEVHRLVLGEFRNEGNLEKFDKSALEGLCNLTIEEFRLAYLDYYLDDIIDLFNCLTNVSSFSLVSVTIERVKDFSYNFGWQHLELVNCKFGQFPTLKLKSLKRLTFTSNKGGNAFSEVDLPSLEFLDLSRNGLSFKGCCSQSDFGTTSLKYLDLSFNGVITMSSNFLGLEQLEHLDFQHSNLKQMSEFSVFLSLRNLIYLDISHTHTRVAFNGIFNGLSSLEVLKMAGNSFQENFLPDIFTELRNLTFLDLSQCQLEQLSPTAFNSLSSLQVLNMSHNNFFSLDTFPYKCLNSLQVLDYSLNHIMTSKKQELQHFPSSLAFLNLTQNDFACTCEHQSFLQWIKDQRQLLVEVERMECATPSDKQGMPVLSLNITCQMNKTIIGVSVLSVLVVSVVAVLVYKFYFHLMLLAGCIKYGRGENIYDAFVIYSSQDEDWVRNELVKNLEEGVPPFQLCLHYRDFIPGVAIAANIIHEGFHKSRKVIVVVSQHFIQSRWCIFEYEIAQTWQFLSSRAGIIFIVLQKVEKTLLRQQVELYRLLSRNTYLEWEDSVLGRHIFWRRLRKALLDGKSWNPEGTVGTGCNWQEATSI

Toll-like receptor 1/2 [13] = molecular target: T5, Toll-like receptor 1/2; experiment: Antagonist activity at TLR1/TLR2 (unknown origin); assay type: protein-complex assay
Toll-like receptor 1/2 [14] = molecular target: T5, Toll-like receptor 1/2; experiment: Antagonist activity at human TLR1/TLR2; assay type: protein-complex assay
TLR2/TLR6 [15] = molecular target: T6, TLR2/TLR6; experiment: Antagonist activity at human TLR2/TLR6; assay type: protein-complex assay
Toll-like receptor 7 [16] = molecular target: T1, Toll-like receptor 7; remark: listed apart in the source
Description: as §1

Toll-like receptor 1/2 [17] = molecular target: T5, Toll-like receptor 1/2
Description: Agonist activity at TLR1/TLR2 in human THP-1 cells

Toll-like receptor 5, sequence (O60602 whole entry): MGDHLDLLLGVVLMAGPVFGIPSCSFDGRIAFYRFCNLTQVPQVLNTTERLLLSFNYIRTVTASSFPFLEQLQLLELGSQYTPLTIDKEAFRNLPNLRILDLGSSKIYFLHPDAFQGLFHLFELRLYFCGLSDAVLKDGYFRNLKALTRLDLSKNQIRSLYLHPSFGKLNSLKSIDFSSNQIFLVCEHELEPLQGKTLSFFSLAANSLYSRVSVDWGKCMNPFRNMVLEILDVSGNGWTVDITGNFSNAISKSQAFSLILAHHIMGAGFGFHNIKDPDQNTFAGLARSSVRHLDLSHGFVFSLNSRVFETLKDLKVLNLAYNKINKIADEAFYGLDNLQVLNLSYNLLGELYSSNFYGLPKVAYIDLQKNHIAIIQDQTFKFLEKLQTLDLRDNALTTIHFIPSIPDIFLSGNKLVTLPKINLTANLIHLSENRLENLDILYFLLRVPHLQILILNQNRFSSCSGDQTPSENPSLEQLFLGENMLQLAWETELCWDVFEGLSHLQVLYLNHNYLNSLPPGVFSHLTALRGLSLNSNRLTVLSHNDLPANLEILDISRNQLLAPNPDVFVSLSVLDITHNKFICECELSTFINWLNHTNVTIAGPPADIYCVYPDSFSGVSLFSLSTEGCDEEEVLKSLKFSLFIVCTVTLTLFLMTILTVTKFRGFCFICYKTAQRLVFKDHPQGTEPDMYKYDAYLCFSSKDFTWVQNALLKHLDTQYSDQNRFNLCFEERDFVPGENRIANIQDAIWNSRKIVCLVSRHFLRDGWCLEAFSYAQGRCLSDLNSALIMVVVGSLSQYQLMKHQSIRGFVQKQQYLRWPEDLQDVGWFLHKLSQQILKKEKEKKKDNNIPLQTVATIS

SMILES: c1ccc(-n2c(Sc3ncnc4c3sc3ncccc34)nnc2-c2ccncc2)cc1
IC50 (Toll-like receptor 5): 3130 nM

SMILES: O=c1occ2c3c(ccc(O)c13)Oc1ccc(O)cc1-2
IC50 [2]: ~10000 nM

SMILES: CCCCc1nc2c(N)nc3ccccc3c2o1
EC50 (Toll-like receptor 8 [7]): 180 nM

SMILES: CCc1nc2c(N)nc3ccccc3c2n1CCCCNS(C)(=O)=O [CPG-52852]
EC50 (Toll-like receptor 7 [1]): ~3000 nM

SMILES: Cc1cccc(-c2ccnc3c(C(N)=O)cnn23)c1
Kd (Toll-like receptor 8 [8]): 220 nM

SMILES: CCCCCCCCCC(CCCCCCCCC)CC(=O)OC[C@H]1O[C@H](O[C@H]2O[C@H](COC(=O)CC(CCCCCCCCC)CCCCCCCCC)[C@@H](O)[C@H](O)[C@H]2O)[C@H](O)[C@@H](O)[C@@H]1O [VIZANTIN]
IC50 (Toll-like receptor 4 [12]): 53 nM

SMILES: c1cnc2sc3c(Sc4nnc(-c5ccncc5)o4)ncnc3c2c1
IC50 (Toll-like receptor 5): 3380 nM

SMILES: CCCN(CCC)C(=O)C1=Cc2ccc(C(=O)N3CC4(C3)CN(c3ccc(C)cc3)C4)cc2N=C(N)C1
EC50 (Toll-like receptor 7 [1]): > 100 nM

SMILES: CCCCn1cc2c(n1)c(N)nc1ccccc12
EC50 (Toll-like receptor 8 [7]): 56 nM
EC50 (Toll-like receptor 7 [16]): 190 nM

SMILES: COCCOc1nc(N)c2[nH]c(=O)n(Cc3ccccc3)c2n1
EC50 (Toll-like receptor 7 [1]): 140 nM

SMILES: CCOC(=O)c1c(NC(=O)N2CCN(C)CC2)sc2c1CCC2
EC50 (Toll-like receptor 1/2 [17]): 550 nM

SMILES: O=C(N[C@H](Cc1ccccc1)C(=O)O)c1cc2c(s1)CCCCC2
IC50 (Toll-like receptor 3): 154000 nM

Next, values leading:

EC50 (Toll-like receptor 7 [1]): > 100 nM
SMILES: CCCN(CCC)C(=O)C1=Cc2ccc(C(=O)NC(c3ccccc3)c3ccccc3)cc2N=C(N)C1

EC50 (Toll-like receptor 8 [3]): 8 nM
EC50 (Toll-like receptor 7 [1]): 16 nM
SMILES: CCCN(CCC)C(=O)C1=Cc2ccc(-c3cccc(C(=O)CC)c3)cc2N=C(N)C1

IC50 (Toll-like receptor 4 [4]): 1.8 nM
IC50 (Toll-like receptor 4 [5]): 1.9 nM
IC50 (Toll-like receptor 4 [6]): 1.3 nM
SMILES: CCOC(=O)C1=CCCC[C@H]1S(=O)(=O)Nc1ccc(F)cc1Cl [RESATORVID]

IC50 (Toll-like receptor 3): 3440 nM
SMILES: O=C(N[C@H](Cc1ccccc1)C(=O)O)c1sc2cc(F)ccc2c1Cl

IC50 (Toll-like receptor 1/2 [9]): 19700 nM
IC50 (TLR2/TLR6 [10]): 37600 nM
SMILES: COc1cccc(/C=N/c2cccc(C(=O)O)c2C)c1O

IC50 (Toll-like receptor 8 [11]): 0.1 nM
SMILES: COc1ccc2c(-c3ccc(OCCCCO)c(C)c3)ccnc2c1

IC50 (Toll-like receptor 1/2 [13]): 580 nM
IC50 (Toll-like receptor 1/2 [14]): 9100 nM
IC50 (TLR2/TLR6 [15]): 5600 nM
SMILES: CCCCCCOC(=O)c1cc(O)c(=O)c2c(O)c(O)c(OC)cc2c1

EC50 (Toll-like receptor 8 [3]): ~100 nM
SMILES: CCCN(CCC)C(=O)C1=Cc2ccc(-c3ccc(C(=O)N4CCCC4)cc3)cc2N=C(N)C1 [MOTOLIMOD]

IC50 (Toll-like receptor 1/2 [9]): 24200 nM
IC50 (TLR2/TLR6 [10]): 37200 nM
SMILES: COc1cccc(C=O)c1O

IC50 (Toll-like receptor 1/2 [14]): 1700 nM
IC50 (TLR2/TLR6 [15]): 5700 nM
SMILES: CCOC(=O)c1ccc(CC(=O)c2ccc(O)c(O)c2O)o1

IC50 (Toll-like receptor 8 [11]): 0.8 nM
SMILES: COc1ccc2c(-c3cnc(OCc4ccccc4)c(C)c3)ccnc2c1

IC50 (Toll-like receptor 5): 50500 nM
SMILES: Cc1cc(C)c2c(n1)sc1c(Sc3nnc(-c4ccncc4)o3)ncnc12
